Blank lines part the entries; values can stand above or below the compound they belong to.
Tested on: 354836-022-R-J1-PDC multicell spheroid viability
Test: Anticancer human tumor 354836-022-R-J1-PDC patient-derived head and neck squamous cell carcinoma cell line growth inhibition [PI3K]
Details: for viability, T/C: stronger effect = lower value
How it was run: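 Three cell types, namely tumor cells, endothelial cells and mesenchymal stem cells, formed each spheroid. Combinations with four PI3K inhibitors were screened at clinically achievable concentrations decreasing by half-log, and spheroid viability was recorded.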

[1] = curve of first compound, second compound 0.0316 µM
[2] = curve of first compound, second compound 0.1 µM
[3] = curve of first compound, second compound 0.316 µM
[4] = curve of first compound, second compound 1 µM
[5] = curve of first compound, second compound 3.16 µM
[6] = curve of first compound, second compound 10 µM
[7] = second compound 0.0316 µM, first compound 0.0316 µM
[8] = second compound 0.0316 µM, first compound 0.1 µM
[9] = second compound 0.1 µM, first compound 0.0316 µM
[10] = second compound 0.1 µM, first compound 0.1 µM
[11] = second compound 0.316 µM, first compound 0.0316 µM
[12] = second compound 0.316 µM, first compound 0.1 µM
[13] = second compound 1 µM, first compound 0.0316 µM
[14] = second compound 1 µM, first compound 0.1 µM
[15] = second compound 3.16 µM, first compound 0.0316 µM
[16] = second compound 3.16 µM, first compound 0.1 µM
[17] = second compound 10 µM, first compound 0.0316 µM
[18] = second compound 10 µM, first compound 0.1 µM
[19] = second compound 0.0316 µM, first compound 0.000316 µM
[20] = second compound 0.0316 µM, first compound 0.001 µM
[21] = second compound 0.0316 µM, first compound 0.00316 µM
[22] = second compound 0.0316 µM, first compound 0.01 µM
[23] = second compound 0.1 µM, first compound 0.000316 µM
[24] = second compound 0.1 µM, first compound 0.001 µM
[25] = second compound 0.1 µM, first compound 0.00316 µM
[26] = second compound 0.1 µM, first compound 0.01 µM
[27] = second compound 0.316 µM, first compound 0.000316 µM
[28] = second compound 0.316 µM, first compound 0.001 µM
[29] = second compound 0.316 µM, first compound 0.00316 µM
[30] = second compound 0.316 µM, first compound 0.01 µM
[31] = second compound 1 µM, first compound 0.000316 µM
[32] = second compound 1 µM, first compound 0.001 µM
[33] = second compound 1 µM, first compound 0.00316 µM
[34] = second compound 1 µM, first compound 0.01 µM
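Also: spheroids exposed to agents for seven days before the viability read.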

- IC50 (curve of compound): 114 nM [middle of 4 runs]
SMILES: Cn1ncc(Cl)c1-c1cc(C(=O)NC(CN)Cc2cccc(F)c2)sc1Cl (configuration not stated)
- viability, T/C (compound 0.0316 µM): 83.5% [middle of 4 runs]
- viability, T/C (compound 0.1 µM): 51.3% [middle of 4 runs]
- viability, T/C (compound 0.316 µM): 35.9% [middle of 4 runs]
- viability, T/C (compound 1 µM): 22.7% [middle of 4 runs]
- viability, T/C (compound 3.16 µM): 15.5% [middle of 4 runs]
- viability, T/C (compound 10 µM): 5.55% [middle of 4 runs]

- IC50 (curve of compound): > 10000 nM
SMILES: C[C@@H](NC(=O)c1ncnc(N)c1Cl)c1ncc(C(=O)Nc2cc(C(F)(F)F)c(Cl)cn2)s1
- viability, T/C (compound 0.0316 µM): 105% [middle of 4 runs]
- viability, T/C (compound 0.1 µM): 99.9% [middle of 4 runs]
- viability, T/C (compound 0.316 µM): 99.3% [middle of 4 runs]
- viability, T/C (compound 1 µM): 98.5% [middle of 4 runs]
- viability, T/C (compound 3.16 µM): 105% [middle of 4 runs]
- viability, T/C (compound 10 µM): 70.9% [middle of 4 runs]

- IC50 [1]: 99.8 nM
- IC50 [2]: 105 nM
- IC50 [3]: 157 nM
- IC50 [4]: 115 nM
- IC50 [5]: 32.4 nM
- IC50 [6]: < 31.6 nM
SMILES: Cn1ncc(Cl)c1-c1cc(C(=O)NC(CN)Cc2cccc(F)c2)sc1Cl (configuration not stated) + Cc1nc(NC(=O)N2CCCC2C(N)=O)sc1-c1ccnc(C(C)(C)C(F)(F)F)c1
- viability, T/C [7]: 78.8%
- viability, T/C [8]: 46.8%
- viability, T/C (second compound 0.0316 µM, first compound 0.316 µM): 32.6%
- viability, T/C (second compound 0.0316 µM, first compound 1 µM): 20.9%
- viability, T/C (second compound 0.0316 µM, first compound 3.16 µM): 17.9%
- viability, T/C (second compound 0.0316 µM, first compound 10 µM): 3.64%
- viability, T/C [9]: 79.4%
- viability, T/C [10]: 45%
- viability, T/C (second compound 0.1 µM, first compound 0.316 µM): 36.2%
- viability, T/C (second compound 0.1 µM, first compound 1 µM): 21.6%
- viability, T/C (second compound 0.1 µM, first compound 3.16 µM): 16.7%
- viability, T/C (second compound 0.1 µM, first compound 10 µM): 4.82%
- viability, T/C [11]: 64.3%
- viability, T/C [12]: 63.8%
- viability, T/C (second compound 0.316 µM, first compound 0.316 µM): 31.2%
- viability, T/C (second compound 0.316 µM, first compound 1 µM): 23%
- viability, T/C (second compound 0.316 µM, first compound 3.16 µM): 19.3%
- viability, T/C (second compound 0.316 µM, first compound 10 µM): 4.88%
- viability, T/C [13]: 59.5%
- viability, T/C [14]: 53.6%
- viability, T/C (second compound 1 µM, first compound 0.316 µM): 36.9%
- viability, T/C (second compound 1 µM, first compound 1 µM): 21.2%
- viability, T/C (second compound 1 µM, first compound 3.16 µM): 14.4%
- viability, T/C (second compound 1 µM, first compound 10 µM): 3.77%
- viability, T/C [15]: 48.9%
- viability, T/C [16]: 44.9%
- viability, T/C (second compound 3.16 µM, first compound 0.316 µM): 25.4%
- viability, T/C (second compound 3.16 µM, first compound 1 µM): 18.1%
- viability, T/C (second compound 3.16 µM, first compound 3.16 µM): 11.6%
- viability, T/C (second compound 3.16 µM, first compound 10 µM): 4.32%
- viability, T/C [17]: 34.2%
- viability, T/C [18]: 29.4%
- viability, T/C (second compound 10 µM, first compound 0.316 µM): 21.9%
- viability, T/C (second compound 10 µM, first compound 1 µM): 14.8%
- viability, T/C (second compound 10 µM, first compound 3.16 µM): 8.76%
- viability, T/C (second compound 10 µM, first compound 10 µM): 3.16%

Second part, the compound before the results:

SMILES: C=CC(=O)N1CCN(c2nc(=O)n(-c3c(C)ccnc3C(C)C)c3nc(-c4c(O)cccc4F)c(F)cc23)C(C)C1 (configuration not stated)
- viability, T/C (compound 0.0316 µM): 114% [middle of 4 runs]
- viability, T/C (compound 0.1 µM): 95.3% [middle of 4 runs]
- viability, T/C (compound 0.316 µM): 99.3% [middle of 4 runs]
- viability, T/C (compound 10 µM): 95.1% [middle of 4 runs]
- IC50 (curve of compound): > 10000 nM

SMILES: Cn1nccc1Nc1nccc(-c2ccn(C(CO)c3ccc(Cl)c(F)c3)c(=O)c2)n1 (configuration not stated)
- viability, T/C (compound 0.0316 µM): 107% [middle of 4 runs]
- viability, T/C (compound 0.1 µM): 91.8% [middle of 4 runs]
- viability, T/C (compound 0.316 µM): 110% [middle of 4 runs]
- viability, T/C (compound 1 µM): 94.6% [middle of 4 runs]
- viability, T/C (compound 3.16 µM): 106% [middle of 4 runs]
- viability, T/C (compound 10 µM): 96.2% [middle of 4 runs]
- IC50 (curve of compound): > 10000 nM

SMILES: CC(C)n1nc(-c2ccc3oc(N)nc3c2)c2c(N)ncnc21 + Cc1nc(NC(=O)N2CCCC2C(N)=O)sc1-c1ccnc(C(C)(C)C(F)(F)F)c1
- IC50 [1]: 14.2 nM
- IC50 [2]: 8.94 nM
- IC50 [3]: 11.1 nM
- IC50 [4]: 8.28 nM
- IC50 [5]: 3.89 nM
- IC50 [6]: < 0.316 nM
- viability, T/C [19]: 92.2%
- viability, T/C [20]: 87.7%
- viability, T/C [21]: 88.7%
- viability, T/C [22]: 44.3%
- viability, T/C [7]: 41.7%
- viability, T/C [8]: 9.88%
- viability, T/C [23]: 89.6%
- viability, T/C [24]: 82.7%
- viability, T/C [25]: 102%
- viability, T/C [26]: 45.5%
- viability, T/C [9]: 36%
- viability, T/C [10]: 11.5%
- viability, T/C [27]: 76.1%
- viability, T/C [28]: 80.2%
- viability, T/C [29]: 81.3%
- viability, T/C [30]: 49.1%
- viability, T/C [11]: 26.3%
- viability, T/C [12]: 10.8%
- viability, T/C [31]: 72.5%
- viability, T/C [32]: 69.4%
- viability, T/C [33]: 69.2%
- viability, T/C [34]: 43%
- viability, T/C [13]: 26.5%
- viability, T/C [14]: 8.31%
- viability, T/C (second compound 3.16 µM, first compound 0.000316 µM): 55.8%
- viability, T/C (second compound 3.16 µM, first compound 0.001 µM): 45.2%
- viability, T/C (second compound 3.16 µM, first compound 0.00316 µM): 60.2%
- viability, T/C (second compound 3.16 µM, first compound 0.01 µM): 39.2%
- viability, T/C [15]: 22%
- viability, T/C [16]: 5.92%
- viability, T/C (second compound 10 µM, first compound 0.000316 µM): 40.9%
- viability, T/C (second compound 10 µM, first compound 0.001 µM): 40.5%
- viability, T/C (second compound 10 µM, first compound 0.00316 µM): 40.1%
- viability, T/C (second compound 10 µM, first compound 0.01 µM): 26.4%
- viability, T/C [17]: 15.2%
- viability, T/C [18]: 4.44%

SMILES: CC(C)n1nc(-c2ccc3oc(N)nc3c2)c2c(N)ncnc21 + CC(Nc1ccc2c(c1)OCCn1cc(N3C(=O)OCC3C(F)F)nc1-2)C(N)=O
- IC50 (curve of first compound, second compound 0.00316 µM): 13.9 nM
- IC50 (curve of first compound, second compound 0.01 µM): 11.5 nM
- IC50 [1]: 7.62 nM
- IC50 [2]: 10.6 nM
- IC50 [3]: 5.01 nM
- IC50 [4]: 1.86 nM
- viability, T/C (second compound 0.00316 µM, first compound 0.000316 µM): 99.9%
- viability, T/C (second compound 0.00316 µM, first compound 0.001 µM): 77%
- viability, T/C (second compound 0.00316 µM, first compound 0.00316 µM): 80.6%
- viability, T/C (second compound 0.00316 µM, first compound 0.01 µM): 53.9%
- viability, T/C (second compound 0.00316 µM, first compound 0.0316 µM): 35.2%
- viability, T/C (second compound 0.00316 µM, first compound 0.1 µM): 12.7%
- viability, T/C (second compound 0.01 µM, first compound 0.000316 µM): 104%
- viability, T/C (second compound 0.01 µM, first compound 0.001 µM): 76%
- viability, T/C (second compound 0.01 µM, first compound 0.00316 µM): 74.5%
- viability, T/C (second compound 0.01 µM, first compound 0.01 µM): 51.3%
- viability, T/C (second compound 0.01 µM, first compound 0.0316 µM): 37.8%
- viability, T/C (second compound 0.01 µM, first compound 0.1 µM): 13.1%
- viability, T/C [19]: 90.2%
- viability, T/C [20]: 78.8%
- viability, T/C [21]: 59.2%
- viability, T/C [22]: 50.5%
- viability, T/C [7]: 25.9%
- viability, T/C [8]: 9.5%
- viability, T/C [23]: 74.1%
- viability, T/C [24]: 81.6%
- viability, T/C [25]: 71.3%
- viability, T/C [26]: 49.4%
- viability, T/C [9]: 25.4%
- viability, T/C [10]: 6.95%
- viability, T/C [27]: 60.3%
- viability, T/C [28]: 75.7%
- viability, T/C [29]: 54%
- viability, T/C [30]: 37.7%
- viability, T/C [11]: 22.2%
- viability, T/C [12]: 6.64%
- viability, T/C [31]: 57.5%
- viability, T/C [32]: 54.8%
- viability, T/C [33]: 45.9%
- viability, T/C [34]: 34.8%
- viability, T/C [13]: 19.4%
- viability, T/C [14]: 5.83%

Source: PubChem BioAssay AID1963981 (Molecular Pharmacology Branch, DTP, NCI, 2024)
